The experiment deals with T1, ITK (Homo sapiens, UniProt Q08881).
T1 sequence (Q08881 1-620): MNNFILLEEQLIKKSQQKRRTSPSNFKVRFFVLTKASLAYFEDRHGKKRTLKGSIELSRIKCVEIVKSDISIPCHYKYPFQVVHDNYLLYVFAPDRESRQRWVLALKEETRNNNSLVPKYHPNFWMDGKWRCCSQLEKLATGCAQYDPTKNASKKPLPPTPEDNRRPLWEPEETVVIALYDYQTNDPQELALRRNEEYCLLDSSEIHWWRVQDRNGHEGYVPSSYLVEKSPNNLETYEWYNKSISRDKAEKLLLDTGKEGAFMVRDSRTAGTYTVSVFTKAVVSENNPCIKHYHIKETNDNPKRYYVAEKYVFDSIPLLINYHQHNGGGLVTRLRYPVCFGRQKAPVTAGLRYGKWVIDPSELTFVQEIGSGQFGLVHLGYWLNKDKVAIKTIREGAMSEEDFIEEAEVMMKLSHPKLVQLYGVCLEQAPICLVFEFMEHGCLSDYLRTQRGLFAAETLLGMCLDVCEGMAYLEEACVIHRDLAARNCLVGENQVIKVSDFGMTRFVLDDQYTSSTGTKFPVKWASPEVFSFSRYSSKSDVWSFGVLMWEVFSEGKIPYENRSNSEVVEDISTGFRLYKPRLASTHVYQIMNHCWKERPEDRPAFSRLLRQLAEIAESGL
The experiment is described as follows: ITK degradation HiBiT assay. It is filed as cell-based. The note with it: 4 hrs; for Dmax: MOLT-4, C-terminal HiBiT-tagged Molt4 cells; for DC50: C-terminal HiBiT-tagged Molt4 cells. Further details: expressed in transfected cells; host or cells: Molt4 (ATCC CRL-1552), monoclonal clone 1C10, engineered to carry the HiBiT tag. The method, then: Itk Degradation Hibit Assay
Compounds provided herein were assayed in vitro with ITK HiBit cell lines. Compound dilution series (11-point, 5 fold dilutions in DMSO, columns 2-12 with replicate in rows A/B, C/D, E/F, G,H at 2000× the final required concentrations were prepared in 96 well plates (Falcon, cat. no. 353077). Column 1, rows A-H were control DMSO. The 2000× solutions ranged from 2 mM to 1.024 nM (final assay concentration range 1 μM to […]). The 2000× solutions were added to cells in […], for a final DMSO concentration of 0.5% and final assay compound concentration of 1×. For the cells, C-terminal HiBiT-tagged Molt4 cells (ATCC CRL-1552, monoclonal cell line clone 1C10) were plated at 1×10^6 cells/mL, 100 μL/well ([…]) in complete RPMI (10% FBS, 1% L-glutamine). The cells were incubated with compound 10 and compound 17 for 4 hrs at […]/6% CO2.
Following incubation, 100 μL of complete Nano-Glo HiBiT Lytic Detection Reagent (Nano-Glo HiBiT Lytic Buffer with 1:50 Nano-Glo HiBiT Lytic Substrate and 1:100 LgBiT Protein; Promega cat. no. N3040) was added. Cells were further incubated for 10 min at room temperature (RT). Luminescence units (LU) were read on an EnVision plate reader (Perkin Elmer, 0.1 sec per well). Percent ITK remaining per sample was calculated as follows: […]
Using Graphpad Prism, % ITK remaining values were plotted as a function of compound concentration. To determine DC50 and Dmax values, resulting curves were fit to the Prism curve-fitting equation “log(inhibitor) vs response—Variable slope (four parameters)” (reported best fit value IC50 used as DC50). ITK was measured with antibody-based MSD (Meso-Scale Discovery) assays shown below.
(In general: The HiBiT peptide binds its large partner to form an active luciferase.)

By Dmax is commonly meant the largest share of the target that was removed. Lower therefore signals shallow degradation. The term DC50 denotes the concentration at which degradation of the target reaches its halfway point. Low readings indicate degradation at low concentration, high ones degradation only at high concentration.

`C[C@@]12Cc3[nH]nc(C(=O)Nc4cnn(C5CCN(C(=O)[C@H]6CC[C@H](Cn7ncc8cc(C9CCC(=O)NC9=O)ccc87)CC6)CC5)c4)c3C[C@@H]1C2(F)F` (mixture of isomers) [Compound 164] returned a maximal degradation (Dmax) of 86%.
In turn, `CC1(C)CCc2c(-c3cc4ccc(C(=O)N5CCC(CN6CCN(c7ccc(C8CCC(=O)NC8=O)cn7)CC6)CC5)cc4[nH]3)n[nH]c2C1` (stereo not shown) [Compound 59, 3-(6-(4-((1-(2-(6,6-dimethyl-4,5,6,7-tetrahydro-1H-indazol-3-yl)-1H-indole-6-carbonyl)piperidin-4-yl)methyl)piperazin-1-yl)pyridin-3-yl)piperidine-2,6-dione] displayed a DC50 of 0.05 nM and a maximal degradation (Dmax) of 81%.
As for `CC1(C)CCc2c(-c3cc4ccc(C(=O)N5CCN(CC6CCN(c7ccc(C8CCC(=O)NC8=O)c(F)c7)CC6)CC5)cc4[nH]3)n[nH]c2C1` (stereo not shown) [Compound 221, 3-(4-(4-((4-(2-(6,6-dimethyl-4,5,6,7-tetrahydro-1H-indazol-3-yl)-1H-indole-6-carbonyl)piperazin-1-yl)methyl)piperidin-1-yl)-2-fluorophenyl)piperidine-2,6-dione], half-maximal degradation (DC50) was put at 3.57 nM and the maximal degradation (Dmax) is 84%.
In the case of `CN(c1ccc(C2CCC(=O)NC2=O)cn1)C1CCN(CC2CCN(C(=O)c3ccc4cc(-c5n[nH]c6c5CCC(C)(C)C6)[nH]c4c3)CC2)CC1` (stereo not shown) [Compound 62, 3-(6-((1-((1-(2-(6,6-dimethyl-4,5,6,7-tetrahydro-1H-indazol-3-yl)-1H-indole-6-carbonyl)piperidin-4-yl)methyl)piperidin-4-yl)(methyl)amino)pyridin-3-yl)piperidine-2,6-dione], the DC50 came out at 0.002 nM and the maximal degradation (Dmax) came out at 72%.
The compound `C[C@@]12Cc3[nH]nc(-c4cc5cc(C(=O)N6CCN(CC7CCN(c8ccc(C(=O)N[C@H]9CCC(=O)NC9=O)nc8)CC7)CC6)ccc5[nH]4)c3C[C@@H]1C2(F)F` [Compound 142] gave a maximal degradation (Dmax) of 80%.
In turn, `CC1(C)CCc2c(-c3cc4cc(F)c(C(=O)N5CCN(CC6CCN(c7ccc(C8CCC(=O)NC8=O)nc7)CC6)CC5)cc4[nH]3)n[nH]c2C1` (stereo not shown) [Compound 216, 3-{5-[4-({4-[2-(6,6-dimethyl-1,4,5,7-tetrahydroindazol-3-yl)-5-fluoro-1H-indole-6-carbonyl]piperazin-1-yl}methyl)piperidin-1-yl]pyridin-2-yl}piperidine-2,6-dione] had a half-maximal degradation concentration (DC50) of 0.06 nM and a Dmax of 87%.
In turn, `COc1cc(N2CCC(CN3CCN(C(=O)c4ccc5cc(-c6n[nH]c7c6CCC(C)(C)C7)[nH]c5c4)CC3)CC2)ccc1C1CCC(=O)NC1=O` (stereo not shown) [Compound 184] came in with a Dmax of 70%.
The compound `C[C@@]12Cc3[nH]nc(-c4cc5ccc(C(=O)N6CC7CCC(C6)N7CC6CCN(c7ccc(C8CCC(=O)NC8=O)cc7)CC6)cc5[nH]4)c3C[C@@H]1C2(F)F` (mixture of isomers) [Compound 154] had a maximal degradation (Dmax) of 76%.
For `CC1(C)CCc2c(C(=O)Nc3cnn([C@H]4CC[C@H](C(=O)N5CCN(c6ccc(C7CCC(=O)NC7=O)cn6)CC5)CC4)c3)n[nH]c2C1` (mixture of isomers) [Compound 175], the Dmax worked out at 65%.
Compound `C[C@@]12Cc3[nH]nc(C(=O)Nc4cnn(C5CCN(CC6CCN(c7ccc(N8CCC(=O)NC8=O)cn7)CC6)CC5)c4)c3C[C@@H]1C2(F)F` [Compound 113, (4aS,5aR)-N-{1-[1-({1-[5-(2,4-dioxo-1,3-diazinan-1-yl)pyridin-2-yl]piperidin-4-yl}methyl)piperidin-4-yl]-1H-pyrazol-4-yl}-5,5-difluoro-5a-methyl-1H,4H,4aH,5H,5aH,6H-cyclopropa[f]indazole-3-carboxamide] came in with a 50% degradation concentration (DC50) of 0.4 nM and a Dmax of 80%.
In turn, `CC1(C)CCc2c(-c3cc4ccc(C(=O)N5CCC(CN6CCc7cc(C8CCC(=O)NC8=O)ccc7C6)CC5)cc4[nH]3)n[nH]c2C1` (stereo not shown) [Compound 193] returned a Dmax of 85%.
`CN(C(=O)CCC1CCN(c2ccc(C3CCC(=O)NC3=O)cn2)C1)c1ccc2cc(-c3n[nH]c4c3C[C@@H]3C(F)(F)[C@]3(C)C4)[nH]c2c1` (stereo partly drawn) [Compound 70, N-(2-((4aS,5aR)-5,5-difluoro-5a-methyl-1,4,4a,5,5a,6-hexahydrocyclopropa[f]indazol-3-yl)-1H-indol-6-yl)-3-(1-(5-(2,6-dioxopiperidin-3-yl)pyridin-2-yl)pyrrolidin-3-yl)-N-methylpropanamide] showed a Dmax of 53%.
Turning to `C[C@@H]1CN(C(=O)c2ccc3cc(-c4n[nH]c5c4CCC(C)(C)C5)[nH]c3c2)C[C@H](C)N1CC1CCN(c2ccc(C3CCC(=O)NC3=O)cc2)CC1` (stereo partly shown) [Compound 157], the Dmax is 84%.
In turn, `C[C@H]1CN(C(=O)c2ccc3cc(-c4n[nH]c5c4CCC(C)(C)C5)[nH]c3c2)CCN1CC1CCN(c2ccc(C3CCC(=O)NC3=O)cn2)CC1` (stereo partly drawn) [Compound 131, 3-(6-(4-(((S)-4-(2-(6,6-dimethyl-4,5,6,7-tetrahydro-1H-indazol-3-yl)-1H-indole-6-carbonyl)-2-methylpiperazin-1-yl)methyl)piperidin-1-yl)pyridin-3-yl)piperidine-2,6-dione] showed a DC50 of 0.5 nM and a Dmax of 84%.
For the compound `Cn1c(=O)n(C2CCC(=O)NC2=O)c2ccc(N[C@H]3CC[C@H](C(=O)N4CCC(n5cc(NC(=O)c6n[nH]c7c6C[C@@H]6C(F)(F)[C@]6(C)C7)cn5)CC4)CC3)cc21` (mixture of isomers) [Compound 169], the Dmax was 80%.
Consider `C[C@@H]1CN(C(=O)c2ccc3cc(-c4n[nH]c5c4C[C@@H]4C(F)(F)[C@]4(C)C5)[nH]c3c2)CCN1CC1CCN(c2ccc(C3CCC(=O)NC3=O)cc2)CC1` (stereo partly shown) [Compound 159], for which the greatest degradation seen (Dmax) is 84%.
With `CC1(C)CCc2c(-c3cc4ccc(C(=O)N5CCC(CC6CCN(c7ccc(C8CCC(=O)NC8=O)cn7)CC6)CC5)cc4[nH]3)n[nH]c2C1` (stereo not shown) [Compound 54, 3-(6-(4-((1-(2-(6,6-dimethyl-4,5,6,7-tetrahydro-1H-indazol-3-yl)-1H-indole-6-carbonyl)piperidin-4-yl)methyl)piperidin-1-yl)pyridin-3-yl)piperidine-2,6-dione], it took 11 nM to reach half-maximal degradation (DC50).
For `CC1(C)CCc2c(C(=O)Nc3cnn(C4CCN(CC5CCN(c6ccc([C@@H]7CCC(=O)NC7=O)cc6)CC5)CC4)c3)n[nH]c2C1` [Compound 121, N-(1-{1-[(1-{4-[(3S)-2,6-dioxopiperidin-3-yl]phenyl}piperidin-4-yl)methyl]piperidin-4-yl}-1H-pyrazol-4-yl)-6,6-dimethyl-4,5,6,7-tetrahydro-1H-indazole-3-carboxamide], the DC50 was 2.03 nM and the Dmax was determined as 76%.
In turn, `C[C@@]12Cc3[nH]nc(-c4cc5ccc(C(=O)N6CCN(CC7CCN(c8ccc(C9CCC(=O)NC9=O)cc8)CC7)CC6)cc5[nH]4)c3C[C@@H]1C2` (mixture of isomers) [Compound 225, (3RS)-3-(4-{4-[(4-{2-[(4aS,5aR)-5a-Methyl-1H,4H,4aH,5H,6H-cyclopropa[f]indazol-3-yl]-1H-indole-6-carbonyl}piperazin-1-yl)methyl]piperidin-1-yl}phenyl)piperidine-2,6-dione] had a DC50 of 8.5 nM and a Dmax of 84%.
As to `C[C@@]12Cc3[nH]nc(C(=O)Nc4cnn([C@@H]5CCN(CC6CCN(c7ccc([C@H]8CCC(=O)NC8=O)cc7)CC6)C[C@H]5F)c4)c3C[C@@H]1C2(F)F` (single isomer, unassigned) [Compound 96], it took 1.1 nM to reach half-maximal degradation (DC50) and the maximal degradation (Dmax) was 89%.
Compound `C[C@@H]1CN(C(=O)c2ccc3cc(-c4n[nH]c5c4CCC(C)(C)C5)[nH]c3c2)CCN1CC1CCN(c2ccc(C3CCC(=O)NC3=O)cc2)CC1` (stereo partly shown) [Compound 156] showed a Dmax of 84%.
`C[C@@]12Cc3[nH]nc(-c4cc5cc(F)c(C(=O)N6CCN(C[C@@H]7CCN(c8ccc(C9CCC(=O)NC9=O)cc8)C7)CC6)cc5[nH]4)c3C[C@@H]1C2(F)F` (stereo partly shown) [Compound 146]: the Dmax is 73%.
